Entries after “also recorded” stand apart in the source; their conditions may differ.
How the values were obtained:
[1] = test system: mouse oligodendrocyte progenitor cells (OPCs); experiment: Mouse OPC differentiation with IRX4204 and T3; type: cell-based; conditions: 5-day treatment, 96-well plates
Protocol: OPCs were derived from plp-EGFP expressing mice.
Therapeutic agents were tested in 96-well plates (6 wells per concentration). […] All media contained 0.1% DMSO. At the end of the 5-day treatment, cells were imaged on Cellomics in two channels and algorithms were used to count nuclei and EGFP+oligodendrocytes.

[2] = test system: cuprizone+rapamycin (CR) demyelination in C57BL/6J mice
Excerpt: Animals (8 week-old male C57BL/6J mice) were subjected to cuprizone diet plus rapamycin injections (CR) for 6 weeks to induce demyelination. […] All animals were sacrificed after 6 weeks of CR to evaluate axonal integrity and microglial/macrophage activity in the white matter (corpus callosum, CC).
A total of 50 animals were included in the study, where 43 animals received CR demyelination for 6 weeks. During demyelination, a subset (n=7) of animals were kept on normal diet to serve as naïve age-matched controls.
To assess thyroid hormone levels, terminal blood draws were taken to quantify the levels of T4.

RXRα = target: T1, RXRα (Homo sapiens, UniProt P19793); conditions: transactivation assays
T1 sequence (P19793 1-462): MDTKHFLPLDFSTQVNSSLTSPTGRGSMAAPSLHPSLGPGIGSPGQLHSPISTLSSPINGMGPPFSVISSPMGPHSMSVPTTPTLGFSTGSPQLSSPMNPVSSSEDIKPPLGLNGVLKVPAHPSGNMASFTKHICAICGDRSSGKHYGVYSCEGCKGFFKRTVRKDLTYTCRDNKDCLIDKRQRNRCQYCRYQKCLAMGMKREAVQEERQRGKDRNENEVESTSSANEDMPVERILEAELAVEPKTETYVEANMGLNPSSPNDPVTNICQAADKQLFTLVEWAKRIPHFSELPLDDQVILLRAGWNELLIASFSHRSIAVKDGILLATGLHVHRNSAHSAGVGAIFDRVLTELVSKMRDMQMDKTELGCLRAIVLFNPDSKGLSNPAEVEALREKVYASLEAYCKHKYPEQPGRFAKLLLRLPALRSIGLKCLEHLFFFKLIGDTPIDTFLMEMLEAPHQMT
Protocol: To determine whether a RXR agonist can mediate its effects via RXRα receptor homodimers, RXRβ receptor homodimers, RXRγ receptor homodimers, or any combination thereof, or the corresponding RAR/RXR heterodimers, receptor-mediated transactivation assays were performed. For transactivation assays assessing RXR homodimer signaling, CV-1 cells were transfected with 1) an expression construct including a full length RXRα, RXRβ, or RXRγ; and 2) a rCRBPII/RXRE-tk-Luc reporter construct that included RXR homodimer-specific RXRE/DR1 responsive element linked to a luciferase gene. For transactivation assays assessing RAR/RXR heterodimer signaling, CV-1 cells were transfected with 1) an expression construct comprising a fusion protein including an estrogen receptor (ER) DNA binding domain linked to the ligand binding domain of RARα, RARβ, or RARγ and 2) a ERE-tk-Luc reporter construct that included an estrogen receptor responsive element linked to a luciferase gene. […] Data are mean values±SE from five independent experiments.

Nurr1/RXR heterodimer = Nurr1/RXR heterodimer (Homo sapiens, UniProt P19793); experiment: Nurr1/RXR transactivation assay (COS 7 cells, NBRE-tk-luc); type: cell-based; conditions: Nurr-1 with or without RXRα
Sequence of Nurr1/RXR heterodimer (P43354 whole entry partner, one chain of several): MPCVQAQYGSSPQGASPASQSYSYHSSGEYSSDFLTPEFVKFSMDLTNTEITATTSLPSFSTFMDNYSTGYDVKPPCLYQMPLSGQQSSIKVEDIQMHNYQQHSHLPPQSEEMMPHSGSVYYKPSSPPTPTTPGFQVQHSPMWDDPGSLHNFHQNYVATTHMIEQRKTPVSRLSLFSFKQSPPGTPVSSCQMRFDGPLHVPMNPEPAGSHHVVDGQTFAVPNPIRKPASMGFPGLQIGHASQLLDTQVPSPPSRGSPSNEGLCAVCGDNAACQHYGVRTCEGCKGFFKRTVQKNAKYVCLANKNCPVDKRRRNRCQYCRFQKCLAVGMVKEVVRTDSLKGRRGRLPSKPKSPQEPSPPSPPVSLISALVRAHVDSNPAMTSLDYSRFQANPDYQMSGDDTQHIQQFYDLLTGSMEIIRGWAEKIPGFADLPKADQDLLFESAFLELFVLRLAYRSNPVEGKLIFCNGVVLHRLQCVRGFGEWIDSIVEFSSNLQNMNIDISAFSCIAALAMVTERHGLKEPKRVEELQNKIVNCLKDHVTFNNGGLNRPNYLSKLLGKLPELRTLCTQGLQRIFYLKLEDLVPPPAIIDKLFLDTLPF
Excerpt: (§1) For PPARγ: CV-1 cells were transfected with 3×(rAOX/DR1)-tk-Luc reporter gene and an expression vector for PPARγ. For FXR:CV-1 cells were transfected with 3×(IBABP/IRI)-tk-Luc reporter gene and vectors for FXR and RXRα. For LXR:CV-1 cells were transfected with 3×(PLTP/LXRE)-tk-Luc reporter gene with vectors for LXRα or LXRβ. For Nurr1: COS 7 cells were transfected with 3×NBRE-tk-luc reporter gene and full length Nurr-1 with or without full-length RXRα plasmid. […] Luciferase data were normalized to co-transfected β-gal activity. Luciferase activity was expressed as percent of maximal activity obtained using specific agonists. Rosiglitazone (PPARγ), GW4064 (FXR), T0901317 (LXR).

[3] = test system: focal demyelination of caudal cerebellar peduncles in rats; experiment: Ethidium bromide focal demyelination in one year old rats; type: in vivo; conditions: IRX4204 10 mg/kg/day oral, thyroxine 20 ng/g s.c., day 7 to 21
Protocol: The experiment uses rats of relatively advanced age (1 year) since such rats undergo remyelination in a less efficient manner, thereby providing data that are more relevant to the clinical treatment of human patients with multiple sclerosis or other demyelination disorders.
Focal demyelination is induced in one year old rats (approximately 300 g in weight) by injecting stereotactically 5 μl of ethidium bromide solution (0.01% vol/vol in saline) in a bilateral manner into the caudal cerebellar peduncles (CCP). […] The rats are killed on day 24 post-ethidium bromide treatment for analysis of remyelination by quantitative polymerase chain reaction (qPCR) and microscopy.

EAE in SJL mice = EAE in SJL mice (PLP peptide); type: in vivo
Protocol: To determine whether a RXR agonist can attenuate multiple sclerosis, SJL mice were immunized to induce EAE by s.c. injection at the base of their spine with 200 μL of adjuvant containing 200 μg proteolipid proteins (139-151) (PLP peptide; Peptides International, Louisville, Ky.) and 400 μg of non-viable M. tuberculosis H37 desiccate emulsified in a mixture of incomplete Freund's adjuvant and PBS. Mice were also given 150 ng of pertussis toxin in PBS i.p. on the same day as PLP emulsion injection and 2 days later. […] Mice were scored using the scale described in Example 3.

[4] = test system: cuprizone+rapamycin demyelination in C57BL/6J mice; experiment: Cuprizone/rapamycin 12-week demyelination, 6-week remyelination treatment; type: in vivo
Excerpt: All animals were sacrificed after 12 weeks of CR or after further 6 weeks of treatment to evaluate myelin in white matter (corpus callosum) and gray matter (hippocampus and cortex). In addition, the size of myelinated axons was quantified and the large myelinated axons were further assessed by 3D-electron microscopy (3D-EM). A total of 40 animals were included in the study, where all 40 animals received CR demyelination for 12 weeks. After demyelination, a subset (n=10) of animals are sacrificed to serve as controls to assess baseline demyelination. […] Floating brain sections are immunostained with myelin prolipid protein (PLP) to visualize and quantify myelin in gray matter, hippocampus (FIG. 16A) and cortex (FIG. 16B).

LXRβ/RXR = LXRβ/RXR transactivation assay (CV-1 cells); type: cell-based; conditions: 20 hr; relative to T0901317
Excerpt: as §1

[5] = test system: oligodendrocyte precursor cells (OPCs); experiment: OPC differentiation into oligodendrocytes (PLP-EGFP, Example 7); type: cell-based, mouse; conditions: compared to negative control (DMSO)
Excerpt: OPCs were generated from a neurosphere culture of E14.5 PLP-EGFP (on C57BL/6J background) mouse brains. […] The EGFP expressing cells were quantified with Cellomics Neuronal Profiling Algorithm.
The EGFP expressing cells in controls and all compounds were quantified with Cellomics Neuronal Profiling Algorithm.

[6] = test system: experimental autoimmune encephalomyelitis (EAE) in C57BL/6 (B6) mice; experiment: EAE in B6 mice (MOG peptide), disease severity score; type: in vivo; conditions: IRX4204 50 μg every other day from day 7 to day 20; vs vehicle
Protocol: Mice were also given 200 ng of pertussis toxin in PBS administered by inter-peritoneal (i.p.) injection on the same day as MOG emulsion injection (day 0) and 2 days later (day 2). […] Mice were scored using the following scale: 0—Mice have no disease, 1—Mice have distal limp tail or rear leg weakness (paresis), 1.5—Mice have distal limp tail and rear leg weakness, 2—Mice have complete limp tail and rear leg weakness, 2.5—Mice have complete limp tail and weakness in both rear legs, 3—Mice have complete limp tail and paralysis in both rear legs, 3.5—Mice have complete limp tail, paralysis in both rear legs, and forelimb weakness. Mice receiving a score of 3.5 were immediately euthanized.

EAE in B6 mice = experiment: EAE dose titration in B6 mice with spleen and CNS flow analysis; type: in vivo
Protocol: A dose titration experiment was also conducted in EAE mice. EAE was induced in 28 B6 mice with MOG/CFA and PT as above. Mice were scored on day 7 as indicated above and divided into groups by score so means are as equal as possible.
At the completion of the experiment, the vehicle control and 200 μg/day groups were euthanized and spleen and CNS samples obtained.

LXRα/RXR = LXRα/RXR transactivation assay (CV-1 cells); type: cell-based; conditions: 20 hr; relative to T0901317
Excerpt: as §1

[7] = test system: CNS infiltrating leukocytes in EAE C57BL/6 (B6) mice; experiment: CNS infiltrating cells in EAE B6 mice (FACS); type: in vivo; conditions: day 20 after immunization, vs vehicle control
Protocol: To determine whether a RXR agonist can reduce central nervous system (CNS) infiltrating cells, C57BL/6 (B6) mice were treated as described in Example 6. On day 20 after immunization, mice were sacrificed and perfused with phosphate buffered saline (PBS). Brain and spinal cord tissue was isolated, digested with DNase and LIBERASE DL® (Roche Diagnostics, Indianapolis, Ind.) for 30 minutes, and homogenized through 70 micron nylon mesh filters. Resulting cells were placed over a Percoll gradient to remove myelin. The remaining cells (microglia and CNS infiltrating cells) were counted, stained for molecules of interest, and run on a flow cytometer. Based on the frequencies obtained by FACS of these cell populations, total cell numbers of CNS infiltrating leukocytes expressing CD45, including CD4^+ T cells and CD11c^+ CD11b^+ myeloid dendritic cells (DC), were calculated.

[8] = CNS, restimulation with PMA/Ionomycin, 200 μg/day vs vehicle

Compound: N[C@@H](Cc1cc(I)c(Oc2ccc(O)c(I)c2)c(I)c1)C(=O)O [Compound T3, triiodothyronine, reference compound]
- oligodendrocyte production (EGFP+ oligodendrocytes) [1]: clear dose-responses

Compound: CC(/C=C/[C@@H]1C[C@]1(C)c1ccc2c(c1)C(C)(C)CCC2(C)C)=C\C(=O)O [IRX4204, 3,7-dimethyl-6(S),7(S)-methano,7-[1,1,4,4-tetramethyl-1,2,3,4-tetrahydronaphth-7-yl]2(E),4(E) heptadienoic acid]
- microglial/macrophage activation (Iba1 staining in CC) ([2]; 6 weeks concurrent treatment, vs vehicle): no difference
- terminal body weights ([2]; ANOVA, vs vehicle): no significant difference
- number of SMI32 positive axonal ovoids in the corpus callosum ([2]; IRX4204 10 mg/kg PO, T4 20 ng/g SQ daily for 6 weeks during CR, vs Vehicle, 10 mg/kg): trend towards decreased number of axonal ovoids but was not statistically different from the Vehicle; also recorded: trend towards decrease in axonal ovoids, but it was statistically not different from vehicle
- mortality during the in-life phase ([2]; mouse, in vivo): no mortality
- decrease in T4 levels compared to vehicle control animals ([2]; terminal blood draws): ~50%
- more potent in activating RXR receptors rather than RAR receptors (RXRα): > 1,000 fold
- activation of Nurr1/RXR heterodimer (Nurr1/RXR heterodimer): selectively activates the Nurr1/RXR permissive heterodimer; also recorded: selectively activates RXR-Nurr1 heterodimers
- Mbp expression (real-time qPCR of lesion samples) [3]: increase
- Pdgfra expression (real-time qPCR of lesion samples) [3]: increase
- remyelinated axons (ultrastructural analyses of CCP lesions) [3]: more remyelinated axons than vehicle treatment
- Nkx2.2+ oligodendrocyte precursor cells (OPCs) in lesions ([3]; vs vehicle): increased
- density of CC1+ differentiated oligodendrocytes in lesions ([3]; vs vehicle): increased
- density of Olig2+ oligodendrocyte lineage cells in lesions ([3]; vs vehicle): increased
- symptoms of EAE (disease severity score) (EAE in SJL mice; 50 μg i.p. every other day from day 7 to day 14): significantly reduces the symptoms of EAE
- Death from Disease (EAE in SJL mice; 50 μg i.p. every other day, n=6): 0/6
- body weight ([4]; 10 mg/kg PO daily for 6 weeks after 12 weeks CR): no significant difference
- size of myelinated axons in the corpus callosum ([4]; 6 weeks of treatment after 12 weeks CR): significantly increases; also recorded: shift in distribution to larger axon diameter
- size of axons in the upper quartile ([4]; 6 weeks of treatment, 3rd quartile, axons about 0.7 μm, P<0.0001): significant increase
- oligodendrocyte production (EGFP+ oligodendrocytes) [1]: clear dose-responses
- activation of LXRβ/RXR (LXRβ/RXR): not to transactivate; also recorded: does not activate
- OPC differentiation into oligodendrocytes (number of EGFP positive cells) [5]: significant increase; also recorded: dose dependent increase
- symptoms of EAE (disease severity score) [6]: significantly reduces the symptoms of EAE
- EAE disease overall (EAE in B6 mice; 50 μg, 100 μg, or 200 μg every day from day 8, vs vehicle): significantly less disease overall
- Co-expression of IFNg and IL-17A by CD4 T cells in CNS (EAE in B6 mice; CNS, 200 μg/day vs vehicle): not significantly different between groups
- total number of infiltrating CD4 T cells in the CNS (EAE in B6 mice; CNS, 200 μg/day vs vehicle): reduced
- IFNγ production by CNS infiltrating lymphocytes (EAE in B6 mice; [8]): significantly reduced
- TNF production by CNS infiltrating lymphocytes (EAE in B6 mice; [8]): significantly reduced
- CCR6 expression on CD4 T cells (EAE in B6 mice; spleen, 200 μg/day vs vehicle): lowered CCR6
- CD4+ CD25hi cells (number) (EAE in B6 mice; spleen, 200 μg/day vs vehicle): reduced
- CD4+ CD25hi cells frequency (EAE in B6 mice; spleen, 200 μg/day vs vehicle): not altered
- CD49d expression on CD4 T cells (EAE in B6 mice; spleen, 200 μg/day vs vehicle): but not CD49d
- total number of effector and memory CD4 T cells (CD44 expression) (EAE in B6 mice; spleen, 200 μg/day vs vehicle): decreased
- total number of recently activated CD4 T cells (CD69 and CD44) (EAE in B6 mice; spleen, 200 μg/day vs vehicle): also decreased
- activation of LXRα/RXR (LXRα/RXR): not to transactivate; also recorded: does not activate
- infiltration of CD4+ cells in to the CNS [7]: significant reduction
- infiltration of CD11c+ CD11b+ cells (myeloid DC) in to the CNS [7]: significant reduction

— US10092535B2, “Treatment of nervous system disorders using combinations of RXR agonists and thyroid hormones” (IO Therapeutics, Inc., priority 2015, dated 2018)
